{"source": "patent US20250297243A1", "about": "“SINGLE CELL MULTIOMICS” (BioSkryb Genomics, Inc., priority 2022, published 2025)", "test_system": "MOLM-13 acute myeloid leukemia cells", "experiment": "MOLM-13 quizartinib drug resistance model (cell growth under continual drug treatment)", "type": "cell-based", "experimental": "Since the ITD mutation, found in ˜20% of AML patients, hyperactivates FLT3 signaling and results in poor prognosis and relapse, non-resistant, drug-sensitive cells were treated with a continual dose of 2 nM quizartinib. This drug is a selective type II kinase inhibitor targeting FLT3. […] MOLM-13 acute myeloid leukemia cells harboring heterozygous FLT3 internal tandem duplication (ITD) were obtained from the DSMZ-German Collection of Microorganisms and Cell Cultures (ACC 554). Cells were maintained in RPMI 1640 (Gibco 11875-093) supplemented with 10% FBS and penicillin/streptomycin, and sub-cultured every 2-3 days while maintaining a density range of 2.5 E5-1.5 E6 cells/ml. For generation of the quizartinib-resistant MOLM-13 line, cells were continually treated with 2 nM quizartinib (Selleckchem AC220) or DMSO vehicle control for matched parental control line and drug replenished at each subculturing until emergence of resistant clones at 5 weeks duration in culture. Genomic DNA (Zymo Research Quick-DNA Microprep w\\Plus Kit, D3020) or total RNA (Qiagen RNeasy Plus Kit, 74034) was isolated from quizartinib-resistant and matched parental MOLM-13 cells at time of FACS sorting to generate bulk sequencing control libraries for comparison to single cell datasets and for quantitative PCR template."}
{"smiles": "CC(C)(C)c1cc(NC(=O)Nc2ccc(-c3cn4c(n3)sc3cc(OCCN5CCOCC5)ccc34)cc2)no1", "note": "[quizartinib]", "values": [{"measurement": "emergence of resistant clones, duration in culture", "setting": "continual 2 nM quizartinib, drug replenished at each subculturing", "value": 5, "unit": "weeks"}, {"measurement": "growth inhibition/apoptosis of drug-sensitive MOLM-13 cells", "setting": "continual dose of 2 nM quizartinib, FLT3 ITD MOLM-13 cells, before resistance emerged", "value": "marked growth inhibition/apoptosis"}]}
